Results from paper PMC11206988, “Study on the Effect of Pharmaceutical Excipient PEG400 on the Pharmacokinetics of Baicalin in Cells Based on MRP2, MRP3, and BCRP Efflux Transporters” (Pharmaceutics, 2024).
Where two headings read alike, the source gives them in different places.

Assays:
Type in all cases: in vitro ADME
MRP3 = target: T1, MRP3 (Homo sapiens, UniProt O15438); assay: Transport of baicalin across MDCK II-MRP3 cell monolayer (transwell); settings: human, pH 7.4, MDCK II-MRP3
T1 construct: host or cells: MDCK II
T1 sequence (O15438 whole entry): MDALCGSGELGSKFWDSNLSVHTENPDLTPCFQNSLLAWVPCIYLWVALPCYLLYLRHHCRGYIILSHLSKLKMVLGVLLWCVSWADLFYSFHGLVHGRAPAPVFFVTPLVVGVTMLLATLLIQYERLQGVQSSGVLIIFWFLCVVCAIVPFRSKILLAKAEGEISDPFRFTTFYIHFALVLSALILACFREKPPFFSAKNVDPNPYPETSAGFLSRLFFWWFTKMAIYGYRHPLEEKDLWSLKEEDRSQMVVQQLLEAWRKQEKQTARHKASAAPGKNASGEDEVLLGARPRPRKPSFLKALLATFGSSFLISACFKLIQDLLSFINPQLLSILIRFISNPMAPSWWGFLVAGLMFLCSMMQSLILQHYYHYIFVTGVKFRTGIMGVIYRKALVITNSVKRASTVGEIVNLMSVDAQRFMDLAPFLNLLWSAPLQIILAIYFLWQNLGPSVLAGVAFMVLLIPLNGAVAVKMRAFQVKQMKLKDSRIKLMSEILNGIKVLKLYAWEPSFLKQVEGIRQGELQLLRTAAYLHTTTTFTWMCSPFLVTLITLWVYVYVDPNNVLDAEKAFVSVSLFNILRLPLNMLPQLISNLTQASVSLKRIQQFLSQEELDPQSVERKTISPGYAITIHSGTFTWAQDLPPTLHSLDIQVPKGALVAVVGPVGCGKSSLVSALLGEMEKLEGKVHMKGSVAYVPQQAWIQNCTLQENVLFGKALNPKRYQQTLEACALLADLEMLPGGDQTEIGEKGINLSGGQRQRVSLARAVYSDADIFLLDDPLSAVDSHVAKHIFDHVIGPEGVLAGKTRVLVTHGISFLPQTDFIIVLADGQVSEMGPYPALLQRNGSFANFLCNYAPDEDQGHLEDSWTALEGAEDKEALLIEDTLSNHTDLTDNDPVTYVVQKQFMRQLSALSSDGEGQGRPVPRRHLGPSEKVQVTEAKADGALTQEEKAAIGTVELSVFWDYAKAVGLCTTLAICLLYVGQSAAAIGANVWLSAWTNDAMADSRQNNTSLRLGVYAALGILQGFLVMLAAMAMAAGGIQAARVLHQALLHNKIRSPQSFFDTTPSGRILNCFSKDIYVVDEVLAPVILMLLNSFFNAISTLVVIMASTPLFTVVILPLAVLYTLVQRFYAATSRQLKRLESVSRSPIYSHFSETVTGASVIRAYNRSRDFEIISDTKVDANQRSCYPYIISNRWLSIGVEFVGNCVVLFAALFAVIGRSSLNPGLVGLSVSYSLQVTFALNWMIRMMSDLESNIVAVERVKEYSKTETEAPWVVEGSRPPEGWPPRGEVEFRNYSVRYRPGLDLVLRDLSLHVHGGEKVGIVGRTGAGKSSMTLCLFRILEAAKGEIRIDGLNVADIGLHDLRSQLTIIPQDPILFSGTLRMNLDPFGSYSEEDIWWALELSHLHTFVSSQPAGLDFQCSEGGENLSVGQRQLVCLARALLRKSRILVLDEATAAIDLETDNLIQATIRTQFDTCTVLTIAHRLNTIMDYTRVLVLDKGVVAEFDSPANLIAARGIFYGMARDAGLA
Experimental: (§1) The cells were inoculated at a density of 0.5 mL (1 × 10^5) in the upper layer of the transwell plate (AP side), and the culture was changed daily after the lower layer was added with 1.5 mL of complete medium without cells every other day. After 5–7 days of growth, the supernatant was aspirated and discarded, and the cell monolayer was rinsed twice with 37 °C Hank’s Balanced Salt Solution (HBSS, pH 7.4). The electrical resistance of the cell monolayer compartments was measured with a resistivity meter (TEER), and the integrity of the cell monolayer was monitored using TEER. The differentiation of MDCK II-WT, MDCK II-MRP2, MDCK II-MRP3, and MDCK II-BCRP cells was examined by determining sodium fluorescein permeability prior to transit experiments. This was done in order to determine the integrity of the cell monolayer. When the TEER value of the cell monolayer was greater than 150 Ω·cm^2 and the MDCK II-MRP2, MDCK II-MRP3, and MDCK II-BCRP sodium fluorescein permeability was less than 0.5 × 10^−6 cm/s or the MDCK II-WT sodium fluorescein permeability was less than 1 × 10^−6 cm/s, the cell monolayer was considered intact and suitable for transit experiments. TEER = (TEERcell monolayer − TEERblank) × Aarea(1) wherein TEERcell monolayer is the resistance of the cell monolayer read directly from the Millicell ERS-2 resistivity meter, and TEERblank is the resistance read by inserting a blank HBSS (no cells) only. Aarea is the surface area of the filter membrane, 1.12 cm^2.
(§2) In this experiment, a 100 μM baicalin solution (dissolved in HBSS) containing different concentrations of PEG400 (0.25%, 0.5%, and 1%) was employed as the test solution, while a solution without PEG400 was used as the blank test solution, which was added to AP or BL chambers, respectively. In the top to basolateral (AP-BL) transport experiment, the 0.5 mL sample added to the apical side (AP) was utilized as the supply room, and the HBSS preheated to 1.5 mL 37 °C was added to the basolateral (BL) as the receiving chamber. Conversely, in the basal low lateral to top (BL-AP) transport experiment, the 1.5 mL sample (dissolved in HBSS) was added to the BL side as the supply room, and the 0.5 mL preheated HBSS was added as a receiving room on the AP side. Once the aforementioned steps had been completed, the transwell was placed on a 37 °C thermostatic oscillator at 60 r/min, and 100 μL was withdrawn from the receiving cell or 10 μL from the supply chamber at 30, 60, 90, and 120 min, depending on the experiment, and replenished with an equal volume of blank 37 °C preheated HBSS. The samples were utilized to precipitate the proteins with 100 μL of methanol containing the internal standard for 10 min. After centrifugation at 16,000× g for 15 min at 4 °C, the supernatant was collected in a volume of 70 μL. The contents were determined by UPLC-MS/MS, and apparent permeability coefficients (PAPP) and efflux ratios (ER) were calculated.
(§3) The formulas for calculating Papp and ER of monolayer and monolayer are as follows:(2) Papp=dQ/dt/AC0 wherein dQ/dt (ng/mL·s) is the transit rate (ng/mL·s); A is the membrane area (1.12 cm^2); and C0 (ng/mL) is the initial concentration of the sample in the supply chamber. ER = PappBL-AP/PappAP-BL (3) wherein PappBL-AP is the apparent permeability coefficient when the BL is added to the sample, and PappAP-BL is the apparent permeability coefficient when the sample is added at the top side (AP).

MDCK II-MRP3 = target: T2, MDCK II-MRP3 (Homo sapiens, UniProt O15438); assay: as above; settings: MDCK II-MRP3; high-concentration PEG400 group vs control group
T2 construct: host or cells: MDCK II
T2 sequence (O15438 whole entry): as above
Experimental: as §1, §2, §3

BCRP = target: T3, BCRP (Homo sapiens, UniProt Q9UNQ0); assay: Transport of baicalin across MDCK II-BCRP cell monolayer (transwell); settings: pH 7.4, MDCK II-BCRP
T3 construct: expressed in transfected cells; host or cells: MDCK II
T3 sequence (Q9UNQ0 1-655): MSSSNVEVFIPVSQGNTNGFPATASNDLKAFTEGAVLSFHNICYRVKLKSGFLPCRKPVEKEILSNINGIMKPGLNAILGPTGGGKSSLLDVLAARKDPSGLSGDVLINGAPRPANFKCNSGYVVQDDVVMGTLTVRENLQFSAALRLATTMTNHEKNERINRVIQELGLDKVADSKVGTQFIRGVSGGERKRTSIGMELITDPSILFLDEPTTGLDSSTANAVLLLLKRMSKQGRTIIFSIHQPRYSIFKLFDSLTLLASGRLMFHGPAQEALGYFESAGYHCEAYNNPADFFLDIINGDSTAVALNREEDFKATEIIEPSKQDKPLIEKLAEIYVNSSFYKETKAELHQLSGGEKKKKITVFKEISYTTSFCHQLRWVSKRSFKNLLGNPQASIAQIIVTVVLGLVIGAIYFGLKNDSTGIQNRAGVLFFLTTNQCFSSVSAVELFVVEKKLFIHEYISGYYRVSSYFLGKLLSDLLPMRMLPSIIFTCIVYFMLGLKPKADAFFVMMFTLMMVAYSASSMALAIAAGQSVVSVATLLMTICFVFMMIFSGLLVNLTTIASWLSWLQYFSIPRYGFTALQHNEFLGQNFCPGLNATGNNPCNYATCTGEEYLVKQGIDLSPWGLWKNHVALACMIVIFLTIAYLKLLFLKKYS
Experimental: as §1, §2, §3

How did the Papp A→B at 120 min, 100 μM (MRP3; 100 μM BG + 0.25% PEG400) turn out when O=C(O)[C@H]1O[C@@H](Oc2cc3oc(-c4ccccc4)cc(=O)c3c(O)c2O)[C@H](O)[C@@H](O)[C@@H]1O [BG, Baicalein-7-O-β-D-glucuronide] was run?
Its Papp A→B at 120 min, 100 μM is 1.06 ± 0.16 ×10⁻⁶ cm/s.

What about the Papp B→A at 120 min, 100 μM (MRP3; 100 μM BG + 0.25% PEG400) of the same compound?
Its Papp B→A at 120 min, 100 μM is 1.04 ± 0.08 ×10⁻⁶ cm/s.

And the Papp A→B at 120 min, 100 μM (MRP3; 100 μM BG + 0.5% PEG400)?
The Papp A→B at 120 min, 100 μM was 1.77 ± 0.2 ×10⁻⁶ cm/s.

And the Papp B→A at 120 min, 100 μM (MRP3; 100 μM BG + 0.5% PEG400)?
The Papp B→A at 120 min, 100 μM was 0.85 ± 0.1 ×10⁻⁶ cm/s.

And the Papp A→B at 120 min, 100 μM (MRP3; 100 μM BG + 1% PEG400)?
The Papp A→B at 120 min, 100 μM was 2.65 ± 0.44 ×10⁻⁶ cm/s.

What about the Papp B→A at 120 min, 100 μM (MRP3; 100 μM BG + 1% PEG400) of the same compound?
Its Papp B→A at 120 min, 100 μM is 0.72 ± 0.16 ×10⁻⁶ cm/s.

What about the Papp A→B at 120 min, 100 μM (MRP3; 100 μM BG alone) of the same compound?
The Papp A→B at 120 min, 100 μM was 0.74 ± 0.1 ×10⁻⁶ cm/s.

And the Papp B→A at 120 min, 100 μM (MRP3; 100 μM BG alone)?
Its Papp B→A at 120 min, 100 μM is 1.18 ± 0.08 ×10⁻⁶ cm/s.

What about the “increase in the PAPPAP-BL/PAPP BL-AP ratio” value (MDCK II-MRP3) of the same compound?
The value was 5.97 fold.

What about the Papp A→B at 120 min, 100 μM (BCRP; 100 μM BG + 0.25% PEG400) of the same compound?
Its Papp A→B at 120 min, 100 μM is 5.64 ± 0.48 ×10⁻⁶ cm/s.

What about the Papp B→A at 120 min, 100 μM (BCRP; 100 μM BG + 0.25% PEG400) of the same compound?
The Papp B→A at 120 min, 100 μM was 8.98 ± 0.42 ×10⁻⁶ cm/s.

And the efflux ratio at 120 min, 100 μM (BCRP; 100 μM BG + 0.25% PEG400, read-out: ER)?
Its efflux ratio at 120 min, 100 μM is 1.59 ± 0.06.

What about the Papp A→B at 120 min, 100 μM (BCRP; 100 μM BG + 0.5% PEG400) of the same compound?
Its Papp A→B at 120 min, 100 μM is 7.4 ± 0.43 ×10⁻⁶ cm/s.

What about the Papp B→A at 120 min, 100 μM (BCRP; 100 μM BG + 0.5% PEG400) of the same compound?
The Papp B→A at 120 min, 100 μM was 7.51 ± 0.47 ×10⁻⁶ cm/s.

And the efflux ratio at 120 min, 100 μM (BCRP; 100 μM BG + 0.5% PEG400, read-out: ER)?
Its efflux ratio at 120 min, 100 μM is 1.02 ± 0.04.

What about the Papp A→B at 120 min, 100 μM (BCRP; 100 μM BG + 1% PEG400) of the same compound?
Its Papp A→B at 120 min, 100 μM is 8.59 ± 0.19 ×10⁻⁶ cm/s.

And the Papp B→A at 120 min, 100 μM (BCRP; 100 μM BG + 1% PEG400)?
The Papp B→A at 120 min, 100 μM was 6.9 ± 0.04 ×10⁻⁶ cm/s.

What about the efflux ratio at 120 min, 100 μM (BCRP; 100 μM BG + 1% PEG400, read-out: ER) of the same compound?
The efflux ratio at 120 min, 100 μM was 0.8 ± 0.02.

And the Papp A→B at 120 min, 100 μM (BCRP; 100 μM BG alone)?
Its Papp A→B at 120 min, 100 μM is 3.43 ± 0.07 ×10⁻⁶ cm/s.

And the Papp B→A at 120 min, 100 μM (BCRP; 100 μM BG alone)?
Its Papp B→A at 120 min, 100 μM is 10.34 ± 0.02 ×10⁻⁶ cm/s.

What about the efflux ratio at 120 min, 100 μM (BCRP; 100 μM BG alone, read-out: ER) of the same compound?
Its efflux ratio at 120 min, 100 μM is 3.01 ± 0.05.
